Consider 6 compounds from publication PMC4757757, “Discovery of cahuitamycins as biofilm inhibitors derived from a convergent biosynthetic pathway” (Nature Communications, 2016).

The test system of series [1] is A. baumannii ATCC 17978 biofilm. The format is cell-based, Acinetobacter baumannii. The settings on record: static crystal violet assay, OD600. The source says:
A static biofilm assay was developed from a previously reported method. The biofilm assay measures the adhesion of bacteria to the surface of polystyrene 384-well microtiter plates. Adherent cells are detected by staining with crystal violet and subsequent washing to remove nonadherent planktonic cells. Inhibitors of biofilm formation prevent the bacteria from adhering to the surface of the microtiter plate and reduce the amount of crystal violet retained after washing. Assay quantification was performed by OD600 absorbance measurement of the crystal-violet-stained biofilm. The assay was optimized for plate surface treatment, time, temperature, media, media concentration, crystal violet concentration, wash method, inhibitor sensitivity and culture inoculum preparation.
The A. baumannii test strain (ATCC 17978) was maintained as a frozen stock at −80 °C in 20% glycerol. A volume of 5 ml of Mueller Hinton II cation adjusted media (Becton Dickinson, catalogue no. 212322) was inoculated and grown at 37 °C, 180 r.p.m. shaking for 4–6 h. The culture was then diluted 1:50 and incubated an additional 2 h. The resulting cells were washed four times by centrifugation and resuspension of the pellet in media was performed to remove any metabolites or cell signalling factors. The assay inoculum was prepared by diluting the cells to 0.008 OD600 in 10% Mueller Hinton II cation adjusted media (diluted in 18 Ohm deionized water). The assay plates (Corning, catalogue no. 3,680; 384-well non-treated polystyrene) were prepared by dispensing 20 μl of 10% Mueller Hinton II cation adjusted media into columns 1–22 using a Multidrop Combi dispenser (Thermo Fisher). The NPE samples were added as 0.2 μl of 15 mg ml^−1 stocks in DMSO using a Biomek FX high-density pintool (Beckman Coulter). Column 1 and 2 contained DMSO without NPEs and served as the negative control. The positive control was added to column 23 and 24 as 20 μl of 40 μM Baicalein (Sigma-Aldrich, catalogue no. 11712). […] Quantification was performed by measuring the OD600 absorbance using a Pherastar plate reader (BMG).

A short description of series [2]: iron affinity (pFe^III) by competition titration with EDTA, UV-visible spectroscopy. The settings on record: 10 mM HEPES, 0.1 M KCl, pH 7.4, 0.1 mM Fe complex, room temperature, at least 24 h, UV-vis, three individual titrations. The format is binding. As for the experimental part:
(§1) In this method, the Fe–cahuitamycin complex was incubated with varying concentrations of EDTA and assessed for Fe distribution using ultraviolet–visible spectroscopy (Methods). The pFe^III for cahuitamycins were calculated against the known stability constants for EDTA (pFe^III=23.42)[24].

A further series concerns A. baumannii ATCC 17978. In words: growth of A. baumannii (minimum inhibitory concentration test, OD600 / CFU). The format is cell-based, Acinetobacter baumannii. As for the experimental part:
Cultures of A. baumannii ATCC 17978 grown overnight were diluted into fresh 10% Mueller Hinton II broth to get 10^5 colony-forming unit per ml by determining optical density at OD600. A volume of 100 μl of diluted cultures were incubated in individual wells of 96-well plate containing 1% of DMSO and various concentrations of cahuitamycins C (3) and D (4). The plate was incubated at 30 °C with shaking at 150 r.p.m. The optical density of each well was monitored every 1 up to 24 h using a microtiter plate reader (Synergy HT, Bio-Tek, Winooski, VT). The number of viable bacterial cells was determined by counting colony-forming unit.

For series [3], the system named is A. baumannii ATCC 17978 biofilm. In words: confocal laser scanning microscope 3D imaging of biofilm formation and biomass (SYTO 9 / propidium iodide, COMSTAT). It counts as cell-based, Acinetobacter baumannii. As to the method:
For visualizing bacterial biofilm formation, the same method as described previously was used for biofilm formation but in a glass-bottom 96-well plate (12–556–38, Fisher Scientific International Inc., Franklin, MA)[65]. […] PBS buffer (100 μl) containing 1 μM of SYTO 9 and 10 μM of propidium iodide was added into the well. The plate was incubated for 15 min in dark. Fluorescent images were acquired with an Olympus Fluoview FV1000 confocal microscope (Olympus, Markham, Ontario) with Melles Griot Laser supply and detectors and filter sets for monitoring SYTO 9 and propidium iodide fluorescence. Images were obtained using an oil immersion × 60 objective lens. 3D images were reconstructed using the Amira software package (Amira, San Diego, CA) from a stack of sectional images of biofilm samples. Biofilm biomass and per cent coverage were calculated based on those images using software COMSTAT[65].

The test system is the same in series [4]. Briefly: flow cell biofilm assay (micrographs). It counts as cell-based, Acinetobacter baumannii. The settings on record: for biofilm in flow cells after 6 h of supplementation (in words) / biofilm in flow cells after 24 h of supplementation (in words): 7.5 μg/ml in 10% MHII broth, flow rate 4 ml/h, room temperature. As for the experimental part: Next, we sought to probe the specific stage and extent of inhibition during biofilm formation employing a secondary flow cell assay (Supplementary Fig. 44; Methods).
Biofilms were formed by A. baumannii ATCC 17978 in flow chambers at room temperature. Images were taken at 1, 6 and 24 h (using a × 60 lens) after inoculation. A flow cell biofilm was achieved by using a flow cell chamber (ACCFL0001, Life Science Incorporated, Greensboro, NC). Briefly, overnight cultures of A. baumannii ATCC 17978 grown in MHII broth at 37 °C were diluted 100-fold with fresh MHII broth. A volume of 1 ml of dilution was injected into a flow cell chamber and allowed to settle 1 h for attachment of bacteria, followed by initiation media flow at a flow rate of 4 ml^−1 h^−1. Flow media was 10% MHII broth (control), 10% MHII broth with 7.5 μg ml^−1 of desferoxamine or 10% MHII broth with […] of cahuitamycin A. Micrographs of the biofilm were acquired at 1, 6 and 24 h after the start of flow media using an Olympus IX70 microscope with a × 60 lens. Flow was still running while acquiring the micrograph.

For series [5] the following is noted: reference value used for the calculation; cited from earlier work. As to the method: as §1
[6] abbreviates: treated at 240 nM, 22 h incubation, confocal x60, average of five replicates.

In the case of `Cc1ccc(O)c(C2=N[C@H](C(=O)N[C@@H](CO)C(=O)N[C@H](CCCN(O)C=O)C(=O)N[C@H](CCCNO)C(=O)NCCC(=O)O)CO2)c1` [compound 5, Cahuitamycin E], the IC50 in series [1] (10% Mueller Hinton II, 30 °C, 20 h, average of three replicates, read-out: IC50, inhibition of biofilm formation) was 10.5 µM.
On to Cahuitamycin B [compound 2], for which the “pFe^III” value in series [2] is given as 20.42±0.09. Moreover, in series [1], the “effect on biofilm formation (in words)” value is “no effects”. Besides, the “effect on bacterial growth (in words)” value in the series with A. baumannii ATCC 17978 was “no effects”.
In the case of `Cc1cccc(O)c1C1=N[C@H](C(=O)N[C@@H](CO)C(=O)N[C@H](CCCN(O)C=O)C(=O)N2NCCC[C@@H]2C(=O)NCCC(=O)O)CO1` [compound 3, Cahuitamycin C], in series [2], the “pFe^III” value worked out at 17.52±0.12. Further, in series [3] (glass plate treated at 240 nM), the “total biomass of biofilm” value amounted to 0.10. For the same compound, in series [3] (setting [6]), the “Average thickness of biofilm” value was 0.20±0.05 μm, the “Maximum thickness of biofilm” value was determined as 1.5±0.33 μm, the “Roughness coefficient of biofilm” value is given as 1.99±0.20 and the “total biomass of biofilm” value worked out at 0.10±0.03 μm^3 μm^−2. The “effect on bacterial growth (in words)” value with A. baumannii ATCC 17978 is on record as “limited effect”.
For Cahuitamycin A [compound 1], in series [4], the “biofilm in flow cells after 6 h of supplementation (in words)” value is reported as “only a few microcolonies”; the “biofilm in flow cells after 24 h of supplementation (in words)” value was “larger microcolonies and initiation of biofilm formation”. Besides, the “pFe^III” value in series [2] is 18.34±0.16. Further, the “total biomass of biofilm” value in series [3] (glass plate treated at 240 nM) is given as 0.18. In series [3] (setting [6]), the “Average thickness of biofilm” value came out at 0.21±0.07 μm, the “Maximum thickness of biofilm” value was found to be 1.5±0.54 μm, the “Roughness coefficient of biofilm” value came out at 1.99±0.18 and the “total biomass of biofilm” value worked out at 0.18±0.05 μm^3 μm^−2. For the same compound, the “effect on biofilm formation (in words)” value in series [1] was “able to inhibit”.
Regarding `CC(=O)N(O)CCCCCNC(=O)CCC(=O)N(O)CCCCCNC(=O)CCC(=O)N(O)CCCCCN` [desferrioxamine], in series [4], the “biofilm in flow cells after 6 h of supplementation (in words)” value is reported as “formation of a robust biofilm” and the “biofilm in flow cells after 24 h of supplementation (in words)” value is recorded as “biofilm became thicker”. Also, the “anti-biofilm activity of siderophore control (in words)” value in series [4] (control to probe iron chelation as mode of action, Supplementary Figs 38 and 44) is reported as “no activity”.
Turning to `O=C(O)CN(CCN(CC(=O)O)CC(=O)O)CC(=O)O` [EDTA], in series [5], the “pFe^III (known stability constant)” value is given as 23.42.
